Laboratory results from ChEMBL document CHEMBL1143057, “Small molecule designed to target metal binding site in the alpha2I domain inhibits integrin function” (J Med Chem, 2007).
Activity calls are given as the source filed them. The rule behind the calls is not given here.

What was measured:
CHO [1] = assay: Inhibition of integrin alpha-2 expressing CHO cell adhesion to collagen 1 at 10 uM; assay type: functional; conditions: Cricetulus griseus
[2] = Inhibition of integrin alpha-2 E318W mutant binding to collagen 4 by Europium-labeled anti-GST assay; parameters: species or system Homo sapiens
[3] = biological target: Integrin alpha-2 (Homo sapiens) (UniProt P17301); assay: Inhibition of integrin alpha-2 domain binding to collagen 1 by Europium-labeled anti-GST assay relative to control; conditions: concentration not given here
CHO [4] = assay: Inhibition of integrin alpha2 Y285F beta-1 mutant binding to collagen 1 in CHO cells; assay type: cell-based; conditions: Homo sapiens
[5] = Inhibition of integrin alpha-2 E318W mutant binding to collagen 1 by Europium-labeled anti-GST assay; parameters: species or system Homo sapiens
CHO [6] = assay: Cytotoxicity against CHO cells at =< 50 uM; assay type: cell-based, Cricetulus griseus; conditions: chinese hamster
[7] = biological target: T1, Integrin alpha-11 (Homo sapiens) (UniProt Q9UKX5); assay: Inhibition of integrin alpha-11 binding to collagen 1 at 50 uM
T1 sequence (whole entry): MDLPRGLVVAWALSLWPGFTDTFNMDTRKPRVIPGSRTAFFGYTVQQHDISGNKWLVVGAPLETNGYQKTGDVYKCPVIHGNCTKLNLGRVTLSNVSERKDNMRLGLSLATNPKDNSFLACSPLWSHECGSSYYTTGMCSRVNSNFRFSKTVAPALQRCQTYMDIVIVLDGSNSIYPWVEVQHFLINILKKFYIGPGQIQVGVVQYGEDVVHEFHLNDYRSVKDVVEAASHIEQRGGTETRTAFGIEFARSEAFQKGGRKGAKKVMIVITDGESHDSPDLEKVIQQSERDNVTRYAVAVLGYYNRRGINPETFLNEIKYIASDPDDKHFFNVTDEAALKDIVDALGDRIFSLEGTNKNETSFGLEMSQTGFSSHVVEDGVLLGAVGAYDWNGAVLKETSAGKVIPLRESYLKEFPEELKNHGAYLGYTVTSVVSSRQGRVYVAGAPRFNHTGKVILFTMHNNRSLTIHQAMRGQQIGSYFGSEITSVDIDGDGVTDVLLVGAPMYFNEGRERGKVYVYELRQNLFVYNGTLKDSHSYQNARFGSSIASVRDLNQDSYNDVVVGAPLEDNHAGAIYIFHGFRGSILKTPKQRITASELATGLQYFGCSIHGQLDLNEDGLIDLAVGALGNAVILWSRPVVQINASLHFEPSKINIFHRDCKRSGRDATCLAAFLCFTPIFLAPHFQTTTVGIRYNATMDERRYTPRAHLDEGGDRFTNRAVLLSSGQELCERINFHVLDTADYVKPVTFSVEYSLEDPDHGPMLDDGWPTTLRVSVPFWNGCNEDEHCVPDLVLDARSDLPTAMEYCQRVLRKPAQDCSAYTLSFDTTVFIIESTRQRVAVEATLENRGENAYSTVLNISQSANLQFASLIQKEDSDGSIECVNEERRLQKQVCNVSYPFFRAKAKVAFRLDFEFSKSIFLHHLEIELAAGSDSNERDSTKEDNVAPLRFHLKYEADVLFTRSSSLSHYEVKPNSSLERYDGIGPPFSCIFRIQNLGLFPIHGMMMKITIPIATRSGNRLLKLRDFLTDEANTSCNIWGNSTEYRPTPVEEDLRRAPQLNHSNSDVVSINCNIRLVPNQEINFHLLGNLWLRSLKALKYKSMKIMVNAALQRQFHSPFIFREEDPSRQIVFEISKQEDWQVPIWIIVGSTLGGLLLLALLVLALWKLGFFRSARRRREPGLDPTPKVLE

[8] = biological target: T2, Integrin alpha-10 (Homo sapiens) (UniProt O75578); assay: Inhibition of integrin alpha-10 binding to collagen 1 at 50 uM
T2 sequence (whole entry): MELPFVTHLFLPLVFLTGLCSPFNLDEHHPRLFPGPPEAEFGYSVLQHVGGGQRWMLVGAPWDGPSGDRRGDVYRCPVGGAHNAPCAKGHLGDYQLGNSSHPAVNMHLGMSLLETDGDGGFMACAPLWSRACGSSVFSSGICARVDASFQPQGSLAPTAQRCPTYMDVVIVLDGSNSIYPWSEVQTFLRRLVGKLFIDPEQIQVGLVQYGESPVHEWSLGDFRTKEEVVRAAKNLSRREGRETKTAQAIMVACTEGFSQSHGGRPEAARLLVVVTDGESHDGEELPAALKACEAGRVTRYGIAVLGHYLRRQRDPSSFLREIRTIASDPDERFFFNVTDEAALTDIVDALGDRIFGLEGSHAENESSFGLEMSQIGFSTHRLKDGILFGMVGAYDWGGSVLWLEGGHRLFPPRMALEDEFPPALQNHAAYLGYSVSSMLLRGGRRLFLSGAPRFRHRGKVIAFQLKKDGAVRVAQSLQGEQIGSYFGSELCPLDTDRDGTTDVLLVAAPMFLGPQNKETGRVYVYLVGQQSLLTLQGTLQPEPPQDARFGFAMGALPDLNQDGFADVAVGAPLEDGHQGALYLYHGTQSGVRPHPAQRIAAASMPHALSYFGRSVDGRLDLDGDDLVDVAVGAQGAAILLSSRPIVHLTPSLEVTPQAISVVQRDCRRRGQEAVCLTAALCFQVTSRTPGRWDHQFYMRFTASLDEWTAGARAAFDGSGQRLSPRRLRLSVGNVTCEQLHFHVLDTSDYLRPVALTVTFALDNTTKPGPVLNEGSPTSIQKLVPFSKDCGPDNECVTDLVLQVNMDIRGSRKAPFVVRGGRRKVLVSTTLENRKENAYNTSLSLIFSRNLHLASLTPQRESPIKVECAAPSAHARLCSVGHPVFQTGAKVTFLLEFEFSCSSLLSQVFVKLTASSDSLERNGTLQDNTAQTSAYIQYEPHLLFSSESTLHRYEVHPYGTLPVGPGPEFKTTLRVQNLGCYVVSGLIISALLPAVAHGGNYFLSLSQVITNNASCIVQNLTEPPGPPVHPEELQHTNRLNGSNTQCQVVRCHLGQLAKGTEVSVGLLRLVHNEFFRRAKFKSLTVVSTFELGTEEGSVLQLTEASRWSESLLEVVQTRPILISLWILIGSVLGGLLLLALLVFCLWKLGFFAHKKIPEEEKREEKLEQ

[9] = biological target: Integrin alpha-1 (Homo sapiens) (UniProt P56199); assay: Inhibition of integrin alpha-1 binding to collagen 1 at 50 uM
Integrin alpha-1 (Homo sapiens), sequence (P56199 whole entry): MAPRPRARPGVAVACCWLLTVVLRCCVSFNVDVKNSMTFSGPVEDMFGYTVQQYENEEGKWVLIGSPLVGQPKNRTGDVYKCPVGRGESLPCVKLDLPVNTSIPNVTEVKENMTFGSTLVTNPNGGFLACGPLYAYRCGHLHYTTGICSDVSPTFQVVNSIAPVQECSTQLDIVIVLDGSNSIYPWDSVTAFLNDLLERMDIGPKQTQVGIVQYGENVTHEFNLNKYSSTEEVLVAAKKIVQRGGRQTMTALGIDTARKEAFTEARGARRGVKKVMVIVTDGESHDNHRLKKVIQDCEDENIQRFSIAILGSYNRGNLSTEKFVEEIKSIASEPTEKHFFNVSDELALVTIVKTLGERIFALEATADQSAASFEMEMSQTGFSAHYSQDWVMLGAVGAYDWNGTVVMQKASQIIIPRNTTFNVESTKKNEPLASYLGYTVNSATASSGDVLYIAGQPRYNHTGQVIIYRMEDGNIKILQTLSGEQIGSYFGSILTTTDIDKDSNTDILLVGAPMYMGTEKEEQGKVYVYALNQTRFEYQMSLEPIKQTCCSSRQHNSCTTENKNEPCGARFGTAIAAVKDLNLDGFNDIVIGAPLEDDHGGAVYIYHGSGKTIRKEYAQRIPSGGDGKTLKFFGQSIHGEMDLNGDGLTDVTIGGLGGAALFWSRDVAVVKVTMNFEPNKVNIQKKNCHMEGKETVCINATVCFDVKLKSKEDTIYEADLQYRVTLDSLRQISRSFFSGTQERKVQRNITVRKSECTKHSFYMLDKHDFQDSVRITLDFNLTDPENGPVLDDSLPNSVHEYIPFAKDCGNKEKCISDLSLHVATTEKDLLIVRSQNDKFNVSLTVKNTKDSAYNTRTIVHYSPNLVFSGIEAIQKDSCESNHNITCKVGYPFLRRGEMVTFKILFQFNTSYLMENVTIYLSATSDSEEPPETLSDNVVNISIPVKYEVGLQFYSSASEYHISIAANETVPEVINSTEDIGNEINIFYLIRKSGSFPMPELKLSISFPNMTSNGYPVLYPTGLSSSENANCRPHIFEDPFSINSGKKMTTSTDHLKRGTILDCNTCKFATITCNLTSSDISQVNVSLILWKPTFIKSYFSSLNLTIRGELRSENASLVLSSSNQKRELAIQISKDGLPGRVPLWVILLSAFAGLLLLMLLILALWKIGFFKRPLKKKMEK

Integrin alpha-2 = biological target: T3, Integrin alpha-2 (Homo sapiens, UniProt P17301); assay: Inhibition of integrin alpha-2 domain binding to collagen 1 by Europium-labeled anti-GST assay
T3 sequence (P17301 whole entry): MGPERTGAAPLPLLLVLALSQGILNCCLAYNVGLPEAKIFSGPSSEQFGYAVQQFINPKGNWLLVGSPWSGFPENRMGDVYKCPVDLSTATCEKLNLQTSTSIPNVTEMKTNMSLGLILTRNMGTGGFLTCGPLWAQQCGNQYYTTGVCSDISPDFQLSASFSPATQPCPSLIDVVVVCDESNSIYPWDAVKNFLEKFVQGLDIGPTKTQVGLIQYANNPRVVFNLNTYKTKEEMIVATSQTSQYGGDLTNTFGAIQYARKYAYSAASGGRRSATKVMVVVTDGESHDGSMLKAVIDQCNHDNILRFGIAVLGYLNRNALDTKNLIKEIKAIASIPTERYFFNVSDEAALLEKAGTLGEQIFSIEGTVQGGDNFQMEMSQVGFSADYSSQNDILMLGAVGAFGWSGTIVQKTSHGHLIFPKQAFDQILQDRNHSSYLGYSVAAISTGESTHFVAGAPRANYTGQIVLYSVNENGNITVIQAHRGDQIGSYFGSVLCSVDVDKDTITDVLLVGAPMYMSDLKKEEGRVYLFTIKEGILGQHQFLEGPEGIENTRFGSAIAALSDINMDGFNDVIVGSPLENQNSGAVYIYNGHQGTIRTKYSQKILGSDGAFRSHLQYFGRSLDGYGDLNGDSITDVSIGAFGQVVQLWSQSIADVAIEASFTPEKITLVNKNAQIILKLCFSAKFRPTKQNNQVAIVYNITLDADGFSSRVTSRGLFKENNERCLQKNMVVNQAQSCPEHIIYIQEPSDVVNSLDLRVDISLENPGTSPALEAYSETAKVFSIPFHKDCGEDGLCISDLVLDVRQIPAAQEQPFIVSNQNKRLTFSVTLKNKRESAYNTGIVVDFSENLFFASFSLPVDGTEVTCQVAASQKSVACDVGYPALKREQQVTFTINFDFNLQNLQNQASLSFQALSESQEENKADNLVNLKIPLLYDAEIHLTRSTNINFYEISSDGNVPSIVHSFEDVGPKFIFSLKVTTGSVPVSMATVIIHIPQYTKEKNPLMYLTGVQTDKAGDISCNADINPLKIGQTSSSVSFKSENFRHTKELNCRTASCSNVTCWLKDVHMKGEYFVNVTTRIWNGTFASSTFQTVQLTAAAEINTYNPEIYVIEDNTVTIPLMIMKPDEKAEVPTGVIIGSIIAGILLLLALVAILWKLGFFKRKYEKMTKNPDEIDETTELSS

[10] = biological target: Integrin alpha-1 (Homo sapiens) (UniProt P56199); assay: Inhibition of integrin alpha-1 binding to collagen 4 at 50 uM
[11] = biological target: Integrin alpha-2 (Homo sapiens) (UniProt P17301); assay: Inhibition of integrin alpha-2 binding to collagen 4 at 50 uM
CHO [12] = assay: Cytotoxicity against CHO cells at =< 200 uM; assay type: cell-based, Cricetulus griseus; conditions: chinese hamster

Row | SMILES | inhibition at 10 µM (CHO [1]) | inhibition [3] | Activity (CHO [6]) | Activity (CHO [12]) | other results
1 | CCc1cc(O)c2c(O)c3c(c(O)c2c1C(=O)OC)C(=O)c1cccc(O)c1C3=O [ANHYDROMAGGIEMYCIN] | 35% | 100% | Non-toxic | – | IC50 [2]: 131 µM; inhibition (CHO [4]): -3.3%; IC50 [5]: 160 µM
2 | COC(=O)c1c(C(C)C)cc(O)c2c(O)c3c(c(O)c12)C(=O)c1cccc(O)c1C3=O | 40% | 90% | Non-toxic | – | Activity [7]: Active; Activity [8]: Active
3 | CCc1cc(O)c2c(O)c3c(cc2c1C(=O)OC)C(=O)c1cccc(O)c1C3=O | – | – | – | – | Activity [9]: Active; IC50 (Integrin alpha-2): 50 µM; Activity [10]: Active; Activity [11]: Active
4 | CCC1(O)CC(=O)c2c(O)c3c(c(O)c2C1C(=O)OC)C(=O)c1cccc(O)c1C3=O (stereo unspecified) [MAGGIEMYCIN] | 10% | 65% | – | Non-toxic | –
5 | CCc1cc(NCCO)c2c(O)c3c(c(O)c2c1C(=O)OC)C(=O)c1cccc(O)c1C3=O | 30% | 0% | – | Non-toxic | –
